Source: the NIST ThermoML archive (doi:10.1021/je050416y)
Numbers after ± are expanded uncertainties.

Assay: xn = mol fraction of the nth substance listed
Conditions: 101 kPa, Liquid; for mass density: Vibrating tube method

CCC(C)(C)O [2-methylbutan-2-ol] + CCO
Conditions	kinematic viscosity, 293.15 K [m2/s]	kinematic viscosity, 298.15 K [m2/s]	kinematic viscosity, 303.15 K [m2/s]	mass density, 293.15 K [kg/m3]	mass density, 298.15 K [kg/m3]	mass density, 303.15 K [kg/m3]	mass density, 308.15 K [kg/m3]
x1 = 0.0268	–	–	–	790.6 ± 1	786.4 ± 1	782.1 ± 1	777.8 ± 1
x1 = 0.0549	–	–	–	791.5 ± 1	787.3 ± 1	783.2 ± 1	778.9 ± 1
x1 = 0.0845	–	–	–	792.2 ± 1	788.2 ± 1	784.2 ± 1	780 ± 1
x1 = 0.0915	1.64e-06 ± 7.7e-08	1.5e-06 ± 7.1e-08	1.34e-06 ± 6.4e-08	–	–	–	–
x1 = 0.1156	–	–	–	793 ± 1	789.1 ± 1	785.2 ± 1	781.1 ± 1
x1 = 0.1484	–	–	–	793.9 ± 1	790 ± 1	786.2 ± 1	782.3 ± 1
x1 = 0.1753	1.76e-06 ± 8.2e-08	1.62e-06 ± 7.6e-08	1.44e-06 ± 6.8e-08	–	–	–	–
x1 = 0.183	–	–	–	794.8 ± 1	791 ± 1	787.3 ± 1	783.4 ± 1
x1 = 0.2524	1.89e-06 ± 8.7e-08	1.74e-06 ± 8.1e-08	1.55e-06 ± 7.3e-08	–	–	–	–
x1 = 0.2584	–	–	–	797 ± 1	793.3 ± 1	789.7 ± 1	785.9 ± 1
x1 = 0.3235	2.04e-06 ± 9.4e-08	1.86e-06 ± 8.6e-08	1.66e-06 ± 7.8e-08	–	–	–	–
x1 = 0.3433	–	–	–	799.5 ± 1	795.9 ± 1	792.3 ± 1	788.6 ± 1
x1 = 0.3894	2.19e-06 ± 1e-07	1.99e-06 ± 9.2e-08	1.78e-06 ± 8.3e-08	–	–	–	–
x1 = 0.4395	–	–	–	802.4 ± 1	798.8 ± 1	795.2 ± 1	791.5 ± 1
x1 = 0.4505	2.35e-06 ± 1.1e-07	2.13e-06 ± 9.8e-08	1.91e-06 ± 8.8e-08	–	–	–	–
x1 = 0.5495	–	–	–	805.3 ± 1	801.8 ± 1	798.2 ± 1	794.6 ± 1
x1 = 0.5605	2.69e-06 ± 1.2e-07	2.43e-06 ± 1.1e-07	2.17e-06 ± 9.9e-08	–	–	–	–
x1 = 0.6567	3.07e-06 ± 1.4e-07	2.76e-06 ± 1.2e-07	2.45e-06 ± 1.1e-07	–	–	–	–
x1 = 0.6765	–	–	–	808.3 ± 1	804.8 ± 1	801.3 ± 1	797.6 ± 1
x1 = 0.7416	3.46e-06 ± 1.5e-07	3.1e-06 ± 1.4e-07	2.74e-06 ± 1.2e-07	–	–	–	–
x1 = 0.817	3.86e-06 ± 1.7e-07	3.44e-06 ± 1.5e-07	3.04e-06 ± 1.4e-07	–	–	–	–
x1 = 0.8247	–	–	–	811.2 ± 1	807.7 ± 1	804.2 ± 1	800.6 ± 1
x1 = 0.8844	4.26e-06 ± 1.9e-07	3.78e-06 ± 1.7e-07	3.33e-06 ± 1.5e-07	–	–	–	–
x1 = 0.9451	4.67e-06 ± 2e-07	4.12e-06 ± 1.8e-07	3.62e-06 ± 1.6e-07	–	–	–	–
x1 = 1	5.11e-06 ± 2.2e-07	4.47e-06 ± 2e-07	3.91e-06 ± 1.7e-07	813.9 ± 1	810.5 ± 1	807 ± 1	803.5 ± 1
